From EPA's ToxRefDB 2

How the values were obtained:
rabbit = conditions: Prenatal developmental toxicity study, new zealand white, Oral, Gavage/Intubation, dose end: 28 GD
rat [1] = conditions: Combined chronic toxicity/carcinogenicity, sprague dawley, Oral, Feed, dose end: 24 month, group: systemic
rat [2] = conditions: Multigenerational reproductive toxicity study, sprague dawley, Oral, Feed, dose end: 2 generation
dog [3] = conditions: Subchronic oral toxicity in nonrodent, beagle, Feed, dose end: 13 week, group: systemic, systemic / in life observation / body weight / body weight gain + systemic / in life observation / clinical signs / anemia + systemic / in …
dog [4] = conditions: Chronic toxicity, beagle, Oral, Feed, dose end: 52 week, group: systemic
rat [5] = conditions: Subchronic oral toxicity in rodents, sprague dawley, Feed, dose end: 90 day, group: systemic, systemic / in life observation / body weight / body weight + systemic / in life observation / body weight / body weight gain
mouse [6] = conditions: Carcinogenicity, cd1, Oral, [Not Specified], dose end: 79 week, group: systemic
rat [7] = conditions: Subchronic oral toxicity in rodents, sprague dawley, Feed, dose end: 13 week, group: systemic, systemic / clinical chemistry / alanine aminotransferase (alt/sgpt) / alanine aminotransferase (alt/sgpt) + systemic / clinical chemistry / …
rat [8] = conditions: Multigenerational reproductive toxicity study, sprague dawley, Oral, Feed, dose end: 3 generation
mouse [9] = conditions: Developmental neurotoxicity study; cd1; Oral; Feed; dose end: 63 PND; group: cannot be grouped; reproductive / offspring survival early / dead fetuses / dead fetuses
mouse [10] = conditions: Combined chronic toxicity/carcinogenicity, b6c3f1, Oral, Feed, dose end: 105 week, group: systemic
rat [11] = conditions: Combined chronic toxicity/carcinogenicity, fischer, Oral, Feed, dose end: 105 week, group: systemic
rat [12] = conditions: Prenatal developmental toxicity study, fischer, Oral, Feed, dose end: 20 GD
dog [13] = conditions: Subchronic oral toxicity in nonrodent, beagle, Feed, dose end: 90 day, group: systemic
mouse [14] = conditions: Subchronic oral toxicity in rodents, cd1, Feed, dose end: 13 week, group: systemic
rat [15] = conditions: Subchronic oral toxicity in rodents, sprague dawley, Feed, dose end: 90 day, group: systemic
rat [16] = conditions: Multigenerational reproductive toxicity study, sprague dawley, Oral, Feed, dose end: 2 generation; remark: listed apart in the source
rat [17] = conditions: Combined chronic toxicity/carcinogenicity, sprague dawley, Oral, Feed, dose end: 24 month, group: systemic; remark: listed apart in the source
dog [18] = conditions: Subchronic oral toxicity in nonrodent, beagle, Feed, dose end: 13 week, group: systemic
rat [19] = conditions: Subchronic oral toxicity in rodents, Sprague-Dawley, Feed, dose end: 90 day, group: systemic, systemic / in life observation / body weight / body weight gain
dog [20] = conditions: Subchronic oral toxicity in nonrodent, beagle, Capsule, dose end: 13 week, group: systemic
[21] = group: developmental, developmental / developmental malformation / bone / ossification sites + developmental / developmental malformation / lung / absent + …
[22] = group: maternal, reproductive / reproductive performance / premature delivery / premature delivery + systemic / in life observation / clinical signs / …
[23] = systemic / in life observation / body weight / body weight + systemic / in life observation / food consumption / food consumption + systemic…
[24] = systemic / organ weight / liver / relative to body weight + systemic / pathology microscopic / liver / infiltration cellular
[25] = group: offspring, developmental / developmental landmark / preputial separation / preputial separation + systemic / in life observation / body weight / …
[26] = group: parental, systemic / in life observation / body weight / body weight + systemic / in life observation / body weight / body weight gain + systemic / …
[27] = group: reproductive, reproductive / offspring survival early / dead fetuses / dead fetuses
[28] = systemic / clinical chemistry / alanine aminotransferase (alt/sgpt) / alanine aminotransferase (alt/sgpt)
[29] = systemic / hematology / anemia / anemia - nos + systemic / hematology / erythrocyte (rbc) count differential / erythrocyte (rbc) + systemic…
[30] = systemic / in life observation / body weight / body weight + systemic / in life observation / body weight / body weight gain + systemic / …
[31] = group: offspring, developmental / developmental landmark / vaginal opening / vaginal opening + systemic / in life observation / body weight / offspring (pup) …
[32] = group: parental, systemic / in life observation / body weight / body weight + systemic / organ weight / kidney / absolute + systemic / organ weight / kidney…
[33] = group: reproductive, reproductive / reproductive performance / fertility / fertility + reproductive / offspring survival early / litter size / litter size
[34] = systemic / pathology microscopic / testes / degeneration + systemic / pathology microscopic / liver / carcinoma
[35] = systemic / in life observation / body weight / body weight gain
[36] = group: developmental, systemic / in life observation / body weight / fetal weight
[37] = group: maternal, systemic / in life observation / body weight / body weight + systemic / in life observation / body weight / body weight gain + systemic / …
[38] = group: maternal, systemic / organ weight / liver / absolute + systemic / organ weight / liver / relative to body weight + systemic / in life observation / …
[39] = systemic / in life observation / body weight / body weight gain + systemic / in life observation / food consumption / food efficiency
[40] = systemic / in life observation / body weight / body weight gain + systemic / in life observation / food consumption / food efficiency + …
[41] = systemic / in life observation / body weight / body weight gain + systemic / in life observation / body weight / body weight + systemic / in…
[42] = systemic / in life observation / body weight / body weight + systemic / in life observation / body weight / body weight gain + systemic / in…
[43] = systemic / organ weight / heart / relative to body weight
[44] = group: offspring, systemic / in life observation / clinical signs / reduced body size
[45] = group: parental, systemic / in life observation / food consumption / food consumption
[46] = group: parental, systemic / in life observation / food consumption / food consumption + systemic / in life observation / body weight / body weight + systemic…
[47] = group: reproductive, reproductive / offspring survival early / litter size / litter size
[48] = systemic / in life observation / body weight / body weight gain + systemic / in life observation / food consumption / food consumption + …
[49] = systemic / in life observation / food consumption / food consumption + systemic / in life observation / body weight / body weight gain
[50] = systemic / clinical chemistry / gamma glutamyl transferase (ggt) / gamma glutamyl transferase (ggt) + systemic / in life observation / …

CN/C(=N\[N+](=O)[O-])NCc1cnc(Cl)s1 [Clothianidin]
LOAEL (rabbit; group: developmental, developmental / developmental malformation / bone / ossification sites + developmental / developmental malformation / lung / absent): 75 mg/kg/day
LEL (rabbit; [21]): 75 mg/kg/day
NEL (rabbit; [21]): 25 mg/kg/day
NOAEL (rabbit; [21]): 25 mg/kg/day
LEL (rabbit; [22]): 75 mg/kg/day
LOAEL (rabbit; [22]): 75 mg/kg/day
NEL (rabbit; [22]): 25 mg/kg/day
NOAEL (rabbit; [22]): 25 mg/kg/day
LOAEL (rat [1]; [23]): 97.8 mg/kg/day
NOAEL (rat [1]; [23]): 32.5 mg/kg/day
LEL (rat [1]; [24]): 9.7 mg/kg/day
NEL (rat [1]; [24]): < 9.7 mg/kg/day
LEL (rat [2]; [25]): 34.3 mg/kg/day
LOAEL (rat [2]; [25]): 34.3 mg/kg/day
NEL (rat [2]; [25]): 10.7 mg/kg/day
NOAEL (rat [2]; [25]): 10.7 mg/kg/day
LEL (rat [2]; [26]): 163 mg/kg/day
LOAEL (rat [2]; [26]): 163 mg/kg/day
NEL (rat [2]; [26]): 31.2 mg/kg/day
NOAEL (rat [2]; [26]): 31.2 mg/kg/day
LEL (rat [2]; [27]): 31.2 mg/kg/day
LOAEL (rat [2]; [27]): 31.2 mg/kg/day
NEL (rat [2]; [27]): 9.8 mg/kg/day
NOAEL (rat [2]; [27]): 9.8 mg/kg/day
LEL (dog [3]): 40.9 mg/kg/day
LOAEL (dog [3]): 40.9 mg/kg/day
NEL (dog [3]): 19.3 mg/kg/day
NOAEL (dog [3]): 19.3 mg/kg/day
LEL (dog [4]; [28]): 36.3 mg/kg/day
NEL (dog [4]; [28]): 16.6 mg/kg/day
LOAEL (dog [4]; [29]): 52.9 mg/kg/day
NOAEL (dog [4]; [29]): 40.1 mg/kg/day
LEL (rat [5]): 202 mg/kg/day
LOAEL (rat [5]): 202 mg/kg/day
NOAEL (rat [5]): 27.9 mg/kg/day
LOAEL (mouse [6]; systemic / in life observation / body weight / body weight + systemic / in life observation / body weight / body weight gain): 216 mg/kg/day
NOAEL (mouse [6]; [30]): 65.1 mg/kg/day
LEL (mouse [6]; systemic / in life observation / clinical signs / excessive or spontaneous vocalization): 171 mg/kg/day
NEL (mouse [6]; systemic / in life observation / clinical signs / excessive or spontaneous vocalization + systemic / in life observation / body weight / …): 47.2 mg/kg/day

CCCCC(CC)COC(=O)c1ccccc1C(=O)OCC(CC)CCCC (stereo unspecified) [Di(2-ethylhexyl) phthalate]
LEL (rat [7]): 0.25 mg/kg/day
LOAEL (rat [7]): > 250 mg/kg/day
NEL (rat [7]): < 0.25 mg/kg/day
NOAEL (rat [7]): ≥ 250 mg/kg/day
LEL (rat [8]; [31]): 391 mg/kg/day
LOAEL (rat [8]; [31]): > 391 mg/kg/day
NEL (rat [8]; [31]): 48 mg/kg/day
NOAEL (rat [8]; [31]): ≥ 391 mg/kg/day
LOAEL (rat [8]; [32]): > 391 mg/kg/day
NEL (rat [8]; [32]): 14 mg/kg/day
NOAEL (rat [8]; [32]): ≥ 391 mg/kg/day
LEL (rat [8]; group: parental, systemic / organ weight / liver / relative to body weight + systemic / pathology microscopic / kidney / dilatation + systemic / pathology …): 48 mg/kg/day
NEL (rat [8]; group: reproductive, reproductive / reproductive performance / fertility / fertility): 48 mg/kg/day
LEL (rat [8]; [33]): 391 mg/kg/day
LOAEL (rat [8]; [33]): > 391 mg/kg/day
NOAEL (rat [8]; [33]): ≥ 391 mg/kg/day
LEL (mouse [9]): 171 mg/kg/day
NEL (mouse [9]): 56 mg/kg/day
NEL (mouse [10]; systemic / pathology microscopic / liver / carcinoma + systemic / in life observation / body weight / body weight + systemic / in life …): 450 mg/kg/day
LOAEL (mouse [10]; systemic / pathology microscopic / testes / degeneration): 900 mg/kg/day
LEL (mouse [10]; [34]): 900 mg/kg/day
NOAEL (mouse [10]; [34]): 450 mg/kg/day
LEL (rat [11]; [35]): 300 mg/kg/day
NEL (rat [11]; [35]): < 300 mg/kg/day
NOAEL (rat [11]; systemic / in life observation / body weight / body weight gain + systemic / pathology microscopic / liver / carcinoma + systemic / in life …): 300 mg/kg/day
LOAEL (rat [11]; systemic / in life observation / body weight / body weight gain + systemic / pathology microscopic / testes / degeneration): 600 mg/kg/day
LEL (rat [12]; [36]): 666 mg/kg/day
LOAEL (rat [12]; [36]): 666 mg/kg/day
NEL (rat [12]; [36]): 357 mg/kg/day
NOAEL (rat [12]; [36]): 357 mg/kg/day
LOAEL (rat [12]; [37]): 666 mg/kg/day
NOAEL (rat [12]; [37]): 357 mg/kg/day
LEL (rat [12]; [38]): 357 mg/kg/day
NEL (rat [12]; [38]): < 357 mg/kg/day

O=C(Nc1ccccc1)Nc1ccnc(Cl)c1 [Forchlorfenuron]
LOAEL (dog [13]; [39]): 173 mg/kg/day
NOAEL (dog [13]; [39]): < 173 mg/kg/day
LEL (dog [13]; [40]): 173 mg/kg/day
NEL (dog [13]; [40]): < 173 mg/kg/day
LOAEL (mouse [14]; [35]): 1290 mg/kg/day
LEL (mouse [14]; [41]): 1290 mg/kg/day
NEL (mouse [14]; [41]): 609 mg/kg/day
NOAEL (mouse [14]; [41]): 609 mg/kg/day
LOAEL (rat [15]; [42]): 428 mg/kg/day
NOAEL (rat [15]; [42]): 84 mg/kg/day
LEL (rat [15]; [43]): 16 mg/kg/day
NEL (rat [15]; [43]): < 16 mg/kg/day
NOAEL (rat [16]; group: offspring, systemic / in life observation / body weight / offspring (pup) weight + developmental / offspring survival late / lactation index / …): 13 mg/kg/day
LOAEL (rat [16]; group: offspring, systemic / in life observation / body weight / offspring (pup) weight + systemic / in life observation / clinical signs / reduced body size): 168 mg/kg/day
LEL (rat [16]; [44]): 13 mg/kg/day
NEL (rat [16]; [44]): < 13 mg/kg/day
LEL (rat [16]; [45]): 144 mg/kg/day
LOAEL (rat [16]; [45]): 144 mg/kg/day
NEL (rat [16]; [46]): 11 mg/kg/day
NOAEL (rat [16]; [46]): 11 mg/kg/day
LEL (rat [16]; [47]): 829 mg/kg/day
LOAEL (rat [16]; [47]): 829 mg/kg/day
NEL (rat [16]; [47]): 168 mg/kg/day
NOAEL (rat [16]; [47]): 168 mg/kg/day
LOAEL (rat [17]; [30]): 93 mg/kg/day
NOAEL (rat [17]; [30]): 7 mg/kg/day
NEL (rat [17]; systemic / pathology microscopic / kidney / dilatation + systemic / organ weight / adrenal gland / absolute + systemic / organ weight / …): 518 mg/kg/day
LOAEL (dog [18]; [48]): 162 mg/kg/day
NOAEL (dog [18]; [48]): 16.8 mg/kg/day
LEL (dog [18]; [49]): 1.8 mg/kg/day
NEL (dog [18]; [49]): < 1.8 mg/kg/day

CCc1cccc(C)c1N(C(=O)CS(=O)(=O)O)C(C)COC (stereo unspecified) [Metolachlor ESA]
LEL (rat [19]): 1540 mg/kg/day
LOAEL (rat [19]): > 1540 mg/kg/day
NEL (rat [19]): 427 mg/kg/day
NOAEL (rat [19]): ≥ 1540 mg/kg/day
LEL (dog [20]; systemic / clinical chemistry / gamma glutamyl transferase (ggt) / gamma glutamyl transferase (ggt) + systemic / clinical chemistry / …): 200 mg/kg/day
LOAEL (dog [20]; [50]): > 1000 mg/kg/day
NOAEL (dog [20]; [50]): ≥ 1000 mg/kg/day
